In patent publication US10441663B2, “Methods for treating cancer” (Bicycle Therapeutics Limited, priority 2016, dated 2019):
*1 amine or outer side, *2 acyl side, *3 side chain or, on linkers, in order; H or OH if unused. Where a SMILES comes first, the peptide text is derived from it. Bridges are numbered along the chain shown (N, C = ends). [ ]: non-standard residue; d: D form. The star is where a group is joined. X1 = COc1cc2cc(c1Cl)N(C)C(=O)C[C@H](OC(=O)[C@H](C)N(C)C(=O)CCSSC(C)CCC(=O)*)[C@]1(C)O[C@H]1[C@H](C)[C@@H]1C[C@@](O)(NC(=O)O1)[C@H](OC)/C=C/C=C(\C)C2; 1Nal = N[C@@H](Cc1cccc2ccccc12)C(=O)O; TBMB = c1c(C[*:1])cc(C[*:3])cc1C[*:2]; Tle = CC(C)(C)[C@H](N)C(=O)O; βAla = NCCC(=O)O; Sar = CNCC(=O)O

System: RPMI2650 xenograft
Test: In vivo efficacy of BT1718 in RPMI2650 xenograft
Set-up: species or system Mus Musculus; key to Best response at 10 mg/kg: CR complete response; PR partial response
Experimental: The objective of this study was to evaluate the in vivo anti-tumor efficacy of BT1718in treatment of HT1080, NCI-H292, NCI-H1975, MDA-MB-231, HCC1806, RPMI2650, HCT-15, HT-29 and SNU-16 xenograft in BALB/c nude mice.
The HT1080, NCI-H292, NCI-H1975, MDA-MB-231, HCC1806, RPMI2650, HCT-15, HT-29 and SNU-16 tumor cells were maintained in vitro as a monolayer culture in medium supplemented with 10% heat inactivated fetal bovine serum at 37° C. in an […]. The tumor cells will be routinely subcultured twice weekly by trypsin-EDTA treatment. The cells growing in an exponential growth phase will be harvested and counted for tumor inoculation.
Mouse was inoculated subcutaneously at the right flank with tumor cells for tumor development. The animals were randomized and treatment was started when the average tumor reaches certain volume for the efficacy study, the inoculating cell amounts and starting tumor size were shown as below in Table 9. The test article administration and the animal numbers in each group were shown in the experimental design in Table 10.
All the procedures related to animal handling, care and the treatment in the study were performed according to the guidelines of the Association for Assessment and Accreditation of Laboratory Animal Care (AAALAC). At the time of routine monitoring, the animals were daily checked for any effects of tumor growth and treatments on normal behavior such as mobility, food and water consumption (by looking only), body weight gain/loss (body weights were measured every day), eye/hair matting and any other abnormal effect as stated in the protocol. Death and observed clinical signs were recorded on the basis of the numbers of animals within each subset.
The major endpoint was to see if the tumor growth could be delayed or mice could be cured. Tumor size was measured three times weekly in two dimensions using a caliper, and the volume was expressed in mm^3 using the formula: V=0.5 a×b^2 where a and b are the long and short diameters of the tumor, respectively. The tumor size was then used for calculations of T/C value. The T/C value (in percent) is an indication of antitumor effectiveness; T and C are the mean volumes of the treated and control groups, respectively, on a given day.
TGI was calculated for each group using the formula: TGI (%)=[1−(Ti−T0)/(Vi−V0)]×100; Ti is the average tumor volume of a treatment group on a given day, T0 is the average tumor volume of the treatment group on the day of treatment start, Vi is the average tumor volume of the vehicle control group on the same day with Ti, and V0 is the average tumor volume of the vehicle group on the day of treatment start.
Summary statistics, including mean and the standard error of the mean (SEM), are provided for the tumor volume of each group at each time point.
Statistical analysis of difference in tumor volume among the groups was conducted on the data obtained at the best therapeutic time point after the final dose.
A one-way ANOVA was performed to compare tumor volume among groups, and when a significant F-statistics (a ratio of treatment variance to the error variance) was obtained, comparisons between groups were carried out with Games-Howell test. All data were analyzed using Prism. P<0.05 was considered to be statistically significant.

Structure (SMILES): COc1cc2cc(c1Cl)N(C)C(=O)C[C@H](OC(=O)[C@H](C)N(C)C(=O)CCSSC(C)CCC(=O)NCCC(=O)N(C)CC(=O)N(C)CC(=O)N(C)CC(=O)N(C)CC(=O)N(C)CC(=O)N(C)CC(=O)N(C)CC(=O)N(C)CC(=O)N(C)CC(=O)N(C)CC(=O)N[C@@H](C)C(=O)N[C@H]1CSCc3cc4cc(c3)CSC[C@H](NC(=O)[C@@H](C)NC(=O)[C@H](Cc3cccc5ccccc35)NC(=O)[C@H](CCC(=O)O)NC(=O)[C@H](CC(N)=O)NC(=O)[C@@H](C)NC1=O)C(=O)N[C@@H](CCC(=O)O)C(=O)N[C@@H](CC(=O)O)C(=O)N[C@@H](Cc1ccccc1)C(=O)N[C@@H](Cc1ccc(O)cc1)C(=O)N[C@@H](CC(=O)O)C(=O)N[C@@H](C(C)(C)C)C(=O)N[C@H](C(N)=O)CSC4)[C@]1(C)O[C@H]1[C@H](C)[C@@H]1C[C@@](O)(NC(=O)O1)[C@H](OC)/C=C/C=C(\C)C2 (stereo partly drawn) [BT1718] ({X1-βAla}-[Sar][Sar][Sar][Sar][Sar][Sar][Sar][Sar][Sar][Sar]AC[dA]NE[1Nal][dA]CEDFYD[Tle]C-NH2; linker 12-18-25 via TBMB (inferred))
- tumor response (10 mg/kg biw): significant tumor inhibition effect, but didn't cause tumor regression
- Body Weight (1 mpk biw, day 0): 21.8 ± 0.5 g
- Tumor Volume (1 mpk biw, day 0): 146 ± 5 mm^3
- Body Weight (1 mpk biw, day 2): 22.1 ± 0.6 g
- Tumor Volume (1 mpk biw, day 2): 159 ± 9 mm^3
- Body Weight (1 mpk biw, day 4): 22.1 ± 0.7 g
- Tumor Volume (1 mpk biw, day 4): 213 ± 23 mm^3
- Body Weight (1 mpk biw, day 7): 22.6 ± 0.5 g
- Tumor Volume (1 mpk biw, day 7): 362 ± 34 mm^3
- Body Weight (1 mpk biw, day 9): 22.8 ± 0.5 g
- Tumor Volume (1 mpk biw, day 9): 470 ± 68 mm^3
- Body Weight (1 mpk biw, day 11): 22.6 ± 0.6 g
- Tumor Volume (1 mpk biw, day 11): 614 ± 96 mm^3
- Body Weight (1 mpk biw, day 14): 23.1 ± 0.8 g
- Tumor Volume (1 mpk biw, day 14): 833 ± 126 mm^3
- Body Weight (3 mpk biw, day 0): 22.1 ± 0.7 g
- Tumor Volume (3 mpk biw, day 0): 147 ± 11 mm^3
- Body Weight (3 mpk biw, day 2): 21.9 ± 0.8 g
- Tumor Volume (3 mpk biw, day 2): 164 ± 20 mm^3
- Body Weight (3 mpk biw, day 4): 21.4 ± 0.6 g
- Tumor Volume (3 mpk biw, day 4): 220 ± 23 mm^3
- Body Weight (3 mpk biw, day 7): 21.9 ± 0.8 g
- Tumor Volume (3 mpk biw, day 7): 365 ± 10 mm^3
- Body Weight (3 mpk biw, day 9): 21.4 ± 0.7 g
- Tumor Volume (3 mpk biw, day 9): 447 ± 18 mm^3
- Body Weight (3 mpk biw, day 11): 20.7 ± 0.8 g
- Tumor Volume (3 mpk biw, day 11): 576 ± 19 mm^3
- Body Weight (3 mpk biw, day 14): 21.0 ± 0.7 g
- Tumor Volume (3 mpk biw, day 14): 724 ± 28 mm^3
- Body Weight (10 mpk biw, day 0): 22.0 ± 0.3 g
- Tumor Volume (10 mpk biw, day 0): 147 ± 7 mm^3
- Body Weight (10 mpk biw, day 2): 21.2 ± 0.1 g
- Tumor Volume (10 mpk biw, day 2): 151 ± 10 mm^3
- Body Weight (10 mpk biw, day 4): 20.6 ± 0.5 g
- Tumor Volume (10 mpk biw, day 4): 190 ± 25 mm^3
- Body Weight (10 mpk biw, day 7): 21.1 ± 0.4 g
- Tumor Volume (10 mpk biw, day 7): 198 ± 38 mm^3
- Body Weight (10 mpk biw, day 9): 19.9 ± 0.3 g
- Tumor Volume (10 mpk biw, day 9): 165 ± 42 mm^3
- Body Weight (10 mpk biw, day 11): 19.2 ± 0.3 g
- Tumor Volume (10 mpk biw, day 11): 155 ± 54 mm^3
- Body Weight (10 mpk biw, day 14): 19.6 ± 0.7 g
- Tumor Volume (10 mpk biw, day 14): 131 ± 49 mm^3
- Best response at 10 mg/kg (RPMI2650, 10 mg/kg): PR
- TGI (RPMI2650, 1 mpk, biw, day 14): 4.5%
- Tumor Volume (RPMI2650, 1 mpk, biw, day 14): 833 ± 126 mm^3
- TGI (RPMI2650, 3 mpk, biw, day 14): 19.8%
- Tumor Volume (RPMI2650, 3 mpk, biw, day 14): 724 ± 28 mm^3
- TGI (RPMI2650, 10 mpk, biw, day 14): 102.1%
- Tumor Volume (RPMI2650, 10 mpk, biw, day 14): 131 ± 49 mm^3
- Minimally Effective Dose IV BIW (RPMI2650, dose leading to tumor-stasis): 10 mg/kg
